PubChem BioAssay AID651586 (Broad Institute, 2012)
Where “and” joins values, the source holds several entries; their conditions need not be identical. Identical values can stand only once.

Test system: SK-MEL-5 viability, CellTiter-Glo ATP luminescence, 24 h
Test: growth inhibition of SK-MEL-5 melanoma cells – cell-based, CellTiter-Glo luminescence, dry powder, set 8, orthogonal assay for MITF inhibitor project, dose response (AID 651586)

O=C1C=C(Nc2ccccc2)C(=O)c2ccccc21
IC50: 2.56 µM and 6.21 µM
